Patent US9034403B2, “Yeast extract containing γ-Glu-X or γ-Glu-X-Gly and a method for producing the same” (AJINOMOTO CO., INC., priority 2010, dated 2015)

Columns and labels:
[1] = system: S288C and HGT1 or PTR2 modified strains (Hgt1p, Ptr2p); assay: Evaluation of γ-Glu-Val-Gly uptake activity of HGT1 or PTR2 modified strains; format: cell-based, Saccharomyces cerevisiae; conditions: 100 ppm γ-Glu-Val-Gly in SD medium, 7 hours
Description: The influence of Hgt1p, which has been considered to be a GSH specific transporter, and Ptr2p, which is a peptide transporter, on γ-Glu-Val-Gly accumulation was evaluated as follows.
Each strain was cultivated in 50-ml tubes containing 5 ml of SD medium with 100 ppm γ-Glu-Val-Gly as a final concentration. Tubes were inoculated by overnight culture of the corresponding strain at initial OD600=0.5, and placed in a rotation shaker at 240 rpm, 30° C. The cultivation time was 7 hours. Then, cells from 2 ml of broth culture were harvested by centrifugation, and were washed with 1 ml of milliQ water three times. Then, washed cells were suspended in 1 ml of milliQ and were incubated at 70° C. for 10 min with a water bath to extract intracellular materials. After cell debris and the extract were separated by centrifugation, the aqueous phase was transferred to a clean vial and the vial was then vacuum-dried. Thus, a dried extract was prepared. Then, the amount of γ-Glu-Val-Gly in the dried extract was measured with LC-MS/MS analysis. The detailed procedures are described below.
1. Sample was dissolved in 100 μl of water, and then 100 μl of acetonitrile (MeCN) was added, and then centrifuged.
2. 190 μl of supernatant was transferred to a new tube and dried.
3. Pellet was dissolved in 40 μl of water.
4. For derivatization, 20 μl of the obtained solution was mixed with 60 μl of buffer and 80 μl of derivatization reagent, and incubated at 55° C. for 10 min.
5. After incubation, 200 μl of 0.1% solution of HCOOH in water was added to stop AQC derivatization reaction.
40 μl of the resultingsolution was taken for HPLC, and γ-Glu-Val-Gly in the elutants was analyzed with MS/MS detector.
It was shown that the HGT1 gene is essential to transport γ-Glu-Val-Gly from the medium, but PTR2 is not.

[2] = system: S288C PADH1-HGT1 (Hgt1p overproducing strain) and S288C; assay: Peptide uptake of Hgt1p overproducing strain and parental strain S288C, intracellular content on dry weight cell; format: cell-based, Saccharomyces cerevisiae
Description: One loop of the S288C strain was inoculated into SD medium (50 ml in a 500 ml-volume Sakaguchi flask), and cultured at 30° C. for 24 hours with shaking at a velocity of 120 rpm. Absorbance of the obtained culture broth was measured, the culture broth was inoculated into SD medium (400 ml in a 2 L-volume conical flask with baffle fins, two or more flasks) so that OD660 was 0.01 at the start of the culture, and culture was performed at 30° C. for 19 hours with shaking by rotation at a velocity of 120 rpm. After 19 hours, γ-Glu-Val-Gly aqueous solutions of various concentrations were added to obtain predetermined concentrations, and the culture was continued for 1 hour. Using these culture broths, the γ-Glu-Val-Gly content in dry cells was calculated in the same manner as in Example 2. Furthermore, the solid content of the extract was calculated, and the amount of γ-Glu-Val-Gly in the solid content was also calculated.
The S288C PADH1-HGT1, Hgt1p overproducing strain obtained in Example 12, and its parental strain S288C, were evaluated for their ability to take up γ-Glu-Val-Gly in the same manners as described in Example 4. The amount of γ-Glu-Val-Gly added into the medium was 100 ppm as a final concentration. As a result, intracellular content of γ-Glu-Val-Gly in S288C on the dry weight cell was about 0.9%, but intracellular content of γ-Glu-Val-Gly in S288C PADH1-HGT1 on the dry weight cell was about 4.9%.
S288C PADH1-HGT1, Hgt1p overproducing strain obtained in Example 12, and its parental strain S288C were evaluated for their γ-Glu-nVal-Gly uptake abilities in the same manners as described in Example 4 and Example 13. The amount of γ-Glu-nVal-Gly added to the medium was 100 ppm as a final concentration.

CC(C)[C@H](NC(=O)CC[C@H](N)C(=O)O)C(=O)NCC(=O)O [γ-Glu-Val-Gly]
intracellular γ-Glu-Val-Gly ([1]; Table 13, strain S288C hgt1Δ ptr2Δ): 0.01 mg 1^−1 OD600^−1 | intracellular γ-Glu-Val-Gly ([1]; Table 13, strain S288C hgt1Δ): 0.01 mg 1^−1 OD600^−1 | intracellular γ-Glu-Val-Gly ([1]; Table 13, strain S288C ptr2Δ): 1.84 mg 1^−1 OD600^−1 | intracellular γ-Glu-Val-Gly ([1]; Table 13, strain S288C): 1.93 mg 1^−1 OD600^−1 | intracellular γ-Glu-Val-Gly ([1]; Table 14, strain S288C PADH1-HGT1): 28.6 mg 1^−1 OD600^−1 | intracellular γ-Glu-Val-Gly ([1]; Table 14, strain S288C PADH1-PTR2): 2.6 mg 1^−1 OD600^−1 | intracellular γ-Glu-Val-Gly ([1]; Table 14, strain S288C): 3.3 mg 1^−1 OD600^−1 | intracellular content of γ-Glu-Val-Gly on the dry weight cell ([2]; S288C PADH1-HGT1, γ-Glu-Val-Gly 100 ppm added into the medium): about 4.9% | intracellular content of γ-Glu-Val-Gly on the dry weight cell ([2]; S288C, γ-Glu-Val-Gly 100 ppm added into the medium): about 0.9% | intracellular content of γ-Glu-Val-Gly on the dry weight cell ([2]; S288C, γ-Glu-nVal-Gly 100 ppm added to the medium): about 0.09%
